# Results as given in US11753403B2, “EIF4E inhibitors and uses thereof” (PIC Therapeutics, Inc., priority 2020, dated 2023).
# Biological target: Human eIF4E (aa 28-217) / biotin labeled 4G2 peptide (Homo sapiens (Human), UniProt P06730)
# Assay: Human eIF4E/4G2 binding assay (TR-FRET)
# Conditions: Human eIF4E/4G2 TR-FRET binding assay; head says IC50, legend says EC50
# Protocol: Example 5. Compound Testing in Human eIF4E/4G2 Binding Assay
# Human eIF4E (aa 28-217) with a C-terminal His-tag was expressed in E. coli in inclusion bodies. The protein was solubilized with 8 M urea and purified under denaturing conditions using nickel-charged HisTrap HP columns (GE Healthcare). The purified protein was then refolded by diluting in 20 mM Hepes pH 7.0, 0.5 M NaCl, 1 mM DTT, 1 mM EDTA, 0.5 M arginine plus 6 M urea, and then dialyzing overnight into the same buffer without the urea. The protein was further dialyzed into 20 mM Hepes, pH 6.5, 50 mM NaCl, 1 mM EDTA, 1 mM DTT, and concentrated using Hitrap SP sepharose FF columns (GE Healthcare). The concentrated protein was dialyzed into 20 mM Hepes, pH 7.0, 0.5M NaCl, 5 mM DTT and 10% glycerol, and stored at −80° C. until use.
# Test compounds (3.43 mM stock in DMSO) were diluted 2-fold in series in DMSO (10 concentration points). Compound solutions (1.2 μl/well) were added into black 384-well polypropylene microplates (Matrix, Thermal Scientific). Twenty-two microliters per well of Assay Buffer (50 mM NaPi, pH 6.5, 50 mM KCl, 1 mM DTT and 0.5 mg/ml gamma globulin) and eight microliters per well of 82.5 nM purified eIF4E in Assay Buffer were added. The samples were incubated at room temperature (20-23° C.) for 4 hours. Biotin labeled 4G2 peptide (Ac-Lys-Gln-Tyr-Asp-Arg-Glu-Phe-Leu-Leu-Asp-Phe-Gln-Phe-Met-Pro-Lys(Aha-Bio)-NH2, 1.75 μM stock in DMSO) was diluted to 0.14 μM in Assay Buffer (without DTT) and 5 μl/well was added. The samples were incubated at room temperature for 20 min. Five microliters per well of 6.4 nM Eu-streptavidin (Eu-SA, Perkin Elmer) and 80 nM Allophycocyanin (APC)-anti His antibody (Columbia Biosciences) in Assay Buffer (without DTT) were then added and the samples were incubated at room temperature for 20 min.
# Assay signals were monitored by reading excitation at 340 nm and emission fluorescence at 615 nm and 665 nm on an Envision reader (Perkin Elmer). Normalized TR-FRET (time-resolved fluorescence resonance energy transfer) assay signal (Rn) was calculated by the formula: Rn=[(A−Ba−C×D)/(D−Bd)]×(Dc−Bd) Where A is the fluorescence intensity of the sample at 665 nm, • D is the fluorescence intensity of the sample at 615 nm, • Ba and Bd are plate backgrounds at 665 nm and 615 nm, respectively, • Dc is the fluorescence intensity of 0.78 nM Eu-SA in the assay buffer at 615 nm The cross-talk factor (C) is determined by the following formula: C=(Ac−Ba)/(Dc−Bd) Where Ac is the fluorescence intensity of 0.78 nM Eu-SA in the assay buffer at 665 nm.
# IC50 values were calculated using xLFit program (IDBS). Table 2 below lists EC50 of some compounds, wherein A represents EC50≤1 uM; B represents 1 uM<EC50≤10 uM; and C represents EC50>10 uM.
# Sequence of Human eIF4E (aa 28-217) / biotin labeled 4G2 peptide (P06730 28-217): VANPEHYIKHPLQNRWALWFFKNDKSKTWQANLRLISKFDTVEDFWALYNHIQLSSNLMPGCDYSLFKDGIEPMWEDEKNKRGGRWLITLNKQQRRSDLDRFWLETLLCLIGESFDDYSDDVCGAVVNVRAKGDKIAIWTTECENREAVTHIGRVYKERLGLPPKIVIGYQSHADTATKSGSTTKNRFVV
row,SMILES,IC50 [µM]
1,CC(C)Cc1sc(N(CCC(=O)O)Cc2cccs2)nc1-c1ccc(Cl)c(Cl)c1 [I-65],≤ 1
2,CC(C)Cc1sc(N(CCO)CCC(=O)O)nc1-c1ccc(Cl)c(Cl)c1 [I-66],1 to 10
3,COCCN(CCC(=O)O)c1nc(-c2ccc(Cl)c(Cl)c2)c(CC(C)C)s1 [I-67],1 to 10
4,Cc1noc(CN(CCC(=O)O)c2nc(-c3ccc(Cl)c(Cl)c3)c(CC(C)C)s2)n1 [I-68],1 to 10
5,CC(C)Cc1sc(N(CCC(=O)O)CC2CCCO2)nc1-c1ccc(Cl)c(Cl)c1 (stereo not drawn) [I-69],1 to 10
6,CC(C)Cc1sc(N(CCCO)CCC(=O)O)nc1-c1ccc(Cl)c(Cl)c1 [I-70],1 to 10
7,CC(C)Cc1sc(N(CCCN(C)C)CCC(=O)O)nc1-c1ccc(Cl)c(Cl)c1 [I-71],> 10
8,CC(C)Cc1sc(N(CCC(=O)O)CCN(C)C)nc1-c1ccc(Cl)c(Cl)c1 [I-72],> 10
9,CC(C)Cc1sc(N(CCC(=O)O)Cc2ccc(O)cc2)nc1-c1ccc(Cl)c(Cl)c1 [I-73],1 to 10
10,CC(C)c1sc(N(CCC(=O)O)Cc2ccccc2)nc1-c1ccc(Cl)c(Cl)c1 [I-74],≤ 1
11,Cc1ccc(-c2nc(N(CCC(=O)O)Cc3ccccc3)sc2C(C)C)cc1C [I-75],1 to 10
12,COc1ccc(-c2nc(N(CCC(=O)O)Cc3ccccc3)sc2C(C)C)cc1 [I-76],> 10
13,CC(C)c1sc(N(CCC(=O)O)Cc2ccccc2)nc1-c1ccc(F)c(F)c1 [I-77],1 to 10
14,CC(C)c1sc(N(CCC(=O)O)Cc2ccccc2)nc1-c1ccc(F)c(Cl)c1 [I-78],1 to 10
15,CC(C)Cc1sc(N(CCC(=O)O)Cc2ccccc2)nc1-c1cccc(Cl)c1 [I-79],1 to 10
16,COc1ccc(-c2nc(N(CCC(=O)O)Cc3ccccc3)sc2CC(C)C)cc1Cl [I-80],1 to 10
17,CC(C)Cc1sc(N(CCC(=O)O)Cc2ccccc2)nc1-c1cc(F)c(F)c(F)c1 [I-81],1 to 10
18,CC(C)Cc1sc(N(CCC(=O)O)Cc2ccccc2)nc1-c1cccc(F)c1 [I-82],1 to 10
19,CC(C)Cc1sc(N(CCC(=O)O)Cc2ccccc2)nc1-c1cccnc1 [I-83],> 10
20,CC(C)Cc1sc(N(CCC(=O)O)Cc2ccccc2)nc1-c1ccncc1 [I-84],> 10
21,"CC(C)Cc1sc(N(CCC(=O)O)Cc2ccccc2)nc1-c1ccc2[nH]ccc2c1 [I-85, 3-((4-(1H-indol-5-yl)-5-isobutylthiazol-2-yl)(benzyl)amino)propanoic acid]",1 to 10
22,CC(C)Cc1sc(N2CCN(C)C(C(=O)O)C2)nc1-c1ccc(Cl)c(Cl)c1 (stereo not drawn) [I-86],> 10
23,CC(C)Cc1sc(N(CCC(=O)O)CC2CCCCC2)nc1-c1ccc(Cl)c(Cl)c1 [I-87],≤ 1
24,CC(C)Cc1sc(N(CCC(=O)O)CC2CCN(C)CC2)nc1-c1ccc(Cl)c(Cl)c1 [I-88],> 10
25,"CN(C)Cc1sc(N(CCC(=O)O)Cc2ccccc2)nc1-c1ccc(Cl)c(Cl)c1 [I-89, 3-(benzyl(4-(3,4-dichlorophenyl)-5-((dimethylamino)methyl)thiazol-2-yl)amino)propanoic acid]",> 10
26,CC(C)Cc1sc(N(CCC(=O)O)Cc2ccccc2)nc1-c1ccc(Cl)cc1 [I-93],1 to 10
27,CC(C)Cc1sc(N(CCC(=O)O)CCc2cccc(Cl)c2)nc1-c1ccc(Cl)c(Cl)c1 [I-94],≤ 1

row,SMILES,IC50 [µM]
1,CC(C)Cc1sc(N(CCCc2ccccc2)CCC(=O)O)nc1-c1ccc(Cl)c(Cl)c1 [I-96],≤ 1
2,"CC(C)Cc1sc(N(CCC(=O)NS(C)(=O)=O)Cc2ccccc2)nc1-c1ccc(Cl)c(Cl)c1 [I-97, 3-(benzyl(4-(3,4-dichlorophenyl)-5-isobutylthiazol-2-yl)amino)-N-(methylsulfonyl)propanamide]",1 to 10
3,"CC(=O)NS(=O)(=O)CCN(Cc1ccccc1)c1nc(-c2ccc(Cl)c(Cl)c2)c(CC(C)C)s1 [I-99, N-(2-(benzyl(4-(3,4-dichlorophenyl)-5-isobutylthiazol-2-yl)amino)ethylsulfonyl)acetamide]",1 to 10
4,CC(C)Cc1sc(N(CCc2nnn[nH]2)Cc2ccccc2)nc1-c1ccc(Cl)c(Cl)c1 [I-100],≤ 1
5,"CC(C)Cc1sc(N(CCC(=O)O)Cc2ccccc2)nc1-c1ccc(-c2ccc(F)cc2)cc1 [I-101, 3-(benzyl(4-(4′-fluorobiphenyl-4-yl)-5-isobutylthiazol-2-yl)amino)propanoic acid]",≤ 1
6,CC(C)Cc1sc(N(CCC(=O)O)Cc2ccccc2)nc1-c1ccc(Oc2ccccc2)c(Cl)c1 [I-103],≤ 1
7,CC(C)Cc1sc(N(CCC(=O)O)CC2CC2)nc1-c1ccc(Cl)c(Cl)c1 [I-105],1 to 10
8,CC(C)Cc1sc(N(CCC(=O)O)CCC2CC2)nc1-c1ccc(Cl)c(Cl)c1 [I-106],1 to 10
9,CC(C)Cc1sc(N(CCC(=O)O)Cc2cccc(Cl)c2)nc1-c1ccc(Cl)c(Cl)c1 [I-107],≤ 1
10,CC(C)Cc1sc(N(CCC(=O)O)Cc2ccccc2Cl)nc1-c1ccc(Cl)c(Cl)c1 [I-108],≤ 1
11,CC(C)Cc1sc(N(CCC(=O)O)Cc2ccc(Cl)cc2)nc1-c1ccc(Cl)c(Cl)c1 [I-109],1 to 10
12,CC(C)Cc1sc(N(CCC(=O)O)Cc2ccc[nH]2)nc1-c1ccc(Cl)c(Cl)c1 [I-110],1 to 10
13,CC(C)Cc1sc(N(CCC(=O)O)Cc2ccccc2)nc1-c1cc(Cl)c(Cl)c(Cl)c1 [I-111],≤ 1
14,"CC(C)Cc1sc(NCC(C(=O)O)N(C)Cc2ccccc2)nc1-c1ccc(Cl)c(Cl)c1 (stereo not drawn) [I-114, 2-(benzyl(methyl)amino)-3-(4-(3,4-dichlorophenyl)-5-isobutylthiazol-2-ylamino)propanoic acid]",1 to 10
15,"CC(C)Cc1sc(NCC(N)C(=O)O)nc1-c1ccc(Cl)c(Cl)c1 (stereo not drawn) [I-115, 2-amino-3-(4-(3,4-dichlorophenyl)-5-isobutylthiazol-2-ylamino)propanoic acid]",> 10
16,"CC(C)Cc1sc(NCC(C(=O)O)N(C)C)nc1-c1ccc(Cl)c(Cl)c1 (stereo not drawn) [I-116, 3-(4-(3,4-dichlorophenyl)-5-isobutylthiazol-2-ylamino)-2-(dimethylamino)propanoic acid]",> 10
17,CC(C)Cc1sc(N(CCC(=O)O)Cc2ccccc2)nc1-c1ccc(O)cc1 [I-117],1 to 10
18,"O=Cc1sc(N(CCC(=O)O)Cc2ccccc2)nc1-c1ccc(Cl)c(Cl)c1 [I-119, 3-(benzyl(4-(3,4-dichlorophenyl)-5-formylthiazol-2-yl)amino)propanoic acid]",1 to 10
19,"COCc1sc(N(CCC(=O)O)Cc2ccccc2)nc1-c1ccc(Cl)c(Cl)c1 [I-120, 3-(benzyl(4-(3,4-dichlorophenyl)-5-(methoxymethyl)thiazol-2-yl)amino)propanoic acid]",1 to 10
20,CSCc1sc(N(CCC(=O)O)Cc2ccccc2)nc1-c1ccc(Cl)c(Cl)c1 [I-121],1 to 10
21,O=C(O)CCN(Cc1ccccc1)c1nc(-c2ccc(Cl)c(Cl)c2)c(Cn2ccnc2)s1 [I-122],1 to 10
22,"CC(C)Cc1sc(NCC(CCCCN)C(=O)O)nc1-c1ccc(Cl)c(Cl)c1 (stereo not drawn) [I-125, 6-amino-2-((4-(3,4-dichlorophenyl)-5-isobutylthiazol-2-ylamino)methyl)hexanoic acid]",> 10
23,"CC(C)Cc1sc(N(CCC(=O)O)Cc2ccccc2)nc1-c1ccc(-c2ccsc2)cc1 [I-126, 3-(benzyl(5-isobutyl-4-(4-(thiophen-3-yl)phenyl)thiazol-2-yl)amino)propanoic acid]",≤ 1
24,CSc1ccc(-c2nc(N(CCC(=O)O)Cc3ccccc3)sc2CC(C)C)cc1 [I-127],1 to 10
25,"CC(C)Cc1sc(N(CCC(=O)O)Cc2ccccc2)nc1-c1ccc(S(C)(=O)=O)cc1 [I-128, 3-(benzyl(5-isobutyl-4-(4-(methylsulfonyl)phenyl)thiazol-2-yl)amino)propanoic acid]",> 10
26,"C=Cc1sc(N(CCC(=O)O)Cc2ccccc2)nc1-c1ccc(Cl)c(Cl)c1 [I-129, 3-(benzyl(4-(3,4-dichlorophenyl)-5-vinylthiazol-2-yl)amino)propanoic acid]",1 to 10
27,O=C(O)CCN(Cc1ccccc1)c1nc(-c2ccc(Cl)c(Cl)c2)c(CN2CCC2)s1 [I-130],> 10
